Reference: article PMC5585349, “Biosynthesis of the nosiheptide indole side ring centers on a cryptic carrier protein NosJ” (Nature Communications, 2017)

How the values were obtained:
NosK = target: T1, NosK (Streptomyces actuosus, UniProt C6FX50); experiment: thioester hydrolysis, HPLC UV […] nm; assay type: biochemical; details: CoA thioester hydrolysed
T1 construct: expressed in E. coli, purified

NosI = NosI (Streptomyces actuosus, UniProt C6FX48); experiment: LC-HR-MS detection of MIA-AMP ([…]); assay type: biochemical
Sequence of NosI (C6FX48 entry or part of it): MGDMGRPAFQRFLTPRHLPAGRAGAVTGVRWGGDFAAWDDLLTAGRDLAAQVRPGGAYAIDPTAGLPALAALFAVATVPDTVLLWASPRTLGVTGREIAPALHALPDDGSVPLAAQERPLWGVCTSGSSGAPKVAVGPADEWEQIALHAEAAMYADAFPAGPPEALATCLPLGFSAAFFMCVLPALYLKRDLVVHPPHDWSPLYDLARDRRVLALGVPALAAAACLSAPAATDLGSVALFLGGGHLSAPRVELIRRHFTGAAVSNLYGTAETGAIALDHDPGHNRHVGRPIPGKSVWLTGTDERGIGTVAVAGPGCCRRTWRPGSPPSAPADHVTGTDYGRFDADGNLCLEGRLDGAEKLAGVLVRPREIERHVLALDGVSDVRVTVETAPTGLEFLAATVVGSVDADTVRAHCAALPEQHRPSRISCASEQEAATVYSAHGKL

T1 sequence (C6FX50 entry or part of it): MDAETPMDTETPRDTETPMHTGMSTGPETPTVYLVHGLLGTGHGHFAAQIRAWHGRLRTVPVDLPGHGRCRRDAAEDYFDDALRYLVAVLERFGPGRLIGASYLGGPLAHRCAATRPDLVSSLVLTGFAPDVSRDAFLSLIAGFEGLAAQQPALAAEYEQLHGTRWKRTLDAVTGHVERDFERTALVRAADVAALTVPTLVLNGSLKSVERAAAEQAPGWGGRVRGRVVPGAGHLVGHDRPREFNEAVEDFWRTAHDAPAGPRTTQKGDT

SMILES | thioester hydrolysis, HPLC UV 300 nm (NosK) | further results
Cc1c(C(=O)SCCNC(=O)CCNC(=O)[C@H](O)C(C)(C)COP(=O)(O)OP(=O)(O)OC[C@H]2O[C@@H](n3cnc4c(N)ncnc43)[C@H](O)[C@@H]2OP(=O)(O)O)[nH]c2ccccc12 [MIA-CoA] | NosK also hydrolyzes the CoA-bound MIA and DMIA thioesters with comparative efficiencies | 
Cc1c(C(=O)O)[nH]c2ccccc12 [compound 3, 3-methyl-2-indolic acid] |  | LC-HR-MS detection of MIA-AMP (4) (NosI; ATP co-substrate, MIA adenylated, then transferred to pantetheine or holo-NosJ): LC-HR-MS analysis of the reaction mixture containing NosI, MIA and ATP clearly showed the production
Cc1cccc2[nH]c(C(=O)SCCNC(=O)CCNC(=O)[C@H](O)C(C)(C)COP(=O)(O)OP(=O)(O)OC[C@H]3O[C@@H](n4cnc5c(N)ncnc54)[C@H](O)[C@@H]3OP(=O)(O)O)c(C)c12 [DMIA-CoA] | NosK also hydrolyzes the CoA-bound MIA and DMIA thioesters with comparative efficiencies | 
Nc1ncnc2c1ncn2[C@@H]1O[C@H](COP(=O)(O)OP(=O)(O)OP(=O)(O)O)[C@@H](O)[C@H]1O [ATP] |  | LC-HR-MS detection of MIA-AMP (4) (NosI; MIA co-substrate): LC-HR-MS analysis of the reaction mixture containing NosI, MIA and ATP clearly showed the production
